Key:
[1] = system: IL-6 levels in human whole blood stimulated with a TLR2 agonist; experiment: IRAK4 Whole Blood Assay (lipoteichoic acid/TLR2-stimulated IL-6); type: cell-based; conditions: lipoteichoic acid 10 μg/mL, IL-6 readout
Experimental: Human whole blood containing the anti-coagulant ACD-A was plated in 384-well plate (25 μL/well) and incubated with compounds for 60 minutes at 37° C. in a 5% CO2 incubator. The blood was stimulated with a TLR2 agonist, 10 μg/mL final concentration of lipoteichoic acid (Invivogen, San Diego, Calif.) in 25 μL RPMI (Gibco) for 5 hours in a 5% CO2 incubator. At the end of the incubation, plates were centrifuged at 2300 rpm for 5 minutes. Supernatants were harvested and analyzed for IL-6 levels by Flow Cytometry beads assay (BD Biosciences, San Jose, Calif.).

IRAK4 = IRAK4 (Homo sapiens (Human), UniProt Q9NWZ3); experiment: IRAK4 Inhibition Assay; type: biochemical; conditions: ATP 500 μM; IRAK4 0.6 nM
Sequence of IRAK4 (Q9NWZ3 whole entry): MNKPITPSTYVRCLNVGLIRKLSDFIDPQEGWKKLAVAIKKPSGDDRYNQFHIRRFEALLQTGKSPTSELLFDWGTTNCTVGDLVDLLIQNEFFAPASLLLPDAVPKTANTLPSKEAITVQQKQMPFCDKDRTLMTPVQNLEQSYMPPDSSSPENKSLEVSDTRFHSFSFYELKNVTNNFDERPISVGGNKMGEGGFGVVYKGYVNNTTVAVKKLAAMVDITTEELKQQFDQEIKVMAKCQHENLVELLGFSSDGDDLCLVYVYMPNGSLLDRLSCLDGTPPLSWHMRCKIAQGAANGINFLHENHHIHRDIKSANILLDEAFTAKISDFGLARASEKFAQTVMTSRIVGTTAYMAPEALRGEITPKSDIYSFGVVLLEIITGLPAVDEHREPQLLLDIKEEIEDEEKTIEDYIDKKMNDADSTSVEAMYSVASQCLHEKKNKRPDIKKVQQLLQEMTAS
Experimental: The assays were performed in U-bottom 384-well plates. The final assay volume was 30 μL prepared from 15 μL additions of enzyme and substrates (fluoresceinated peptide and ATP) and test compounds in assay buffer (20 mM HEPES pH 7.2, 10 mM MgCl2, 0.015% Brij 35 and 4 mM DTT). The reaction was initiated by the combination of IRAK4 with substrates and test compounds. The reaction mixture was incubated at room temperature for 60 min. and terminated by adding 45 μL of 35 mM EDTA to each sample. The reaction mixture was analyzed on the Caliper LABCHIP® 3000 (Caliper, Hopkinton, Mass.) by electrophoretic separation of the fluorescent substrate and phosphorylated product. Inhibition data were calculated by comparison to no enzyme control reactions for 100% inhibition and vehicle-only reactions for 0% inhibition. The final concentrations of reagents in the assays are ATP, 500 μM; FL-IPTSPITTTYFFFKKK peptide 1.5 μM; IRAK4, 0.6 nM; and DMSO, 1.6%.

SMILES	EC50 ([1]; Homo sapiens)	IC50 (IRAK4)	EC50 [1]
CC(C)(O)[C@H](F)CNC(=O)c1cnc(-c2cnn3cc(Cl)cnc23)cc1NC1CCCOC1 (single isomer, unassigned) [Example 3]	380 nM	6 nM	
CC(C)(O)[C@H](F)CNC(=O)c1cnc(-c2cnn3cc(Cl)cnc23)cc1NC1CCCOC1 (single isomer, unassigned) [Example 4]		13 nM	680 nM
COC1CC(Nc2cc(-c3cnn4cc(Cl)cnc34)ncc2C(=O)NC[C@@H](F)C(C)(C)O)CC1(F)F (single isomer, unassigned) [Example 13]	4450 nM	7 nM	
CC(C)OC1CC(Nc2cc(-c3cnn4cc(Cl)cnc34)ncc2C(=O)NC[C@@H](F)C(C)(C)O)CC1(F)F (single isomer, unassigned) [Example 16]		6 nM	1090 nM
CC(C)(O)[C@H](F)CNC(=O)c1cnc(-c2cnn3cc(Cl)cnc23)cc1NC1COCC1(F)F (single isomer, unassigned) [Example 18]	1150 nM	8 nM	
CC(C)(O)[C@H](F)CNC(=O)c1cnc(-c2cnn3cc(C#N)cnc23)cc1NC1CCCOC1 (single isomer, unassigned) [Example 94]		10 nM	370 nM
CC(C)(O)[C@H](F)CNC(=O)c1cnc(-c2cnn3cc(C#N)cnc23)cc1NC1CCCOC1 (single isomer, unassigned) [Example 95]		6 nM	1160 nM
CC(C)Nc1cc(-c2cnc3cc(C#N)cnn23)ncc1C(=O)NCC(F)C1CC(C)OC(C)C1 (single isomer, unassigned) [Example 176, 6-(7-cyanoimidazo[1,2-b]pyridazin-3-yl)-N-(2-(2,6-dimethyltetrahydro-2H-pyran-4-yl)-2-fluoroethyl)-4-(isopropylamino)nicotinamide]	540 nM	3 nM	
CCC(C)Nc1cc(-c2cnn3cc(Cl)cnc23)ncc1C(=O)NC[C@@H](F)C(C)(C)O (stereo in doubt) [Example 69, 4-(((R)-sec-butyl)amino)-6-(6-chloropyrazolo[1,5-a]pyrimidin-3-yl)-N—((R)-2-fluoro-3-hydroxy-3-methylbutyl)nicotinamide]	3170 nM	2 nM	
CC(C)(CO)Nc1cc(-c2cnn3cc(Cl)cnc23)ncc1C(=O)NC[C@@H](F)C(C)(C)O [Example 7, (R)-6-(6-chloropyrazolo[1,5-a]pyrimidin-3-yl)-N-(2-fluoro-3-hydroxy-3-methylbutyl)-4-((1-hydroxy-2-methylpropan-2-yl)amino)nicotinamide]	570 nM	2 nM	
CC(C)Nc1cc(-c2cnn3cc(Cl)cnc23)ncc1C(=O)NCCC(C)(C)F [Example 20, 6-(6-chloropyrazolo[1,5-a]pyrimidin-3-yl)-N-(3-fluoro-3-methylbutyl)-4-(isopropylamino)nicotinamide]	2530 nM	7 nM	
CC(C)Nc1cc(-c2cnc3cccnn23)ncc1C(=O)NC[C@@H](F)C(C)(C)O [Example 21, (R)—N-(2-fluoro-3-hydroxy-3-methylbutyl)-6-(imidazo[1,2-b]pyridazin-3-yl)-4-(isopropylamino)nicotinamide]		7 nM	2530 nM
CNC(=O)[C@H]1CC[C@H](NC(=O)c2cnc(-c3cnn4cc(Cl)cnc34)cc2NC2CC2)CC1 [Example 25, 6-(6-chloropyrazolo[1,5-a]pyrimidin-3-yl)-4-(cyclopropylamino)-N-((1r,4r)-4-(methylcarbamoyl)cyclohexyl)nicotinamide]	460 nM	5 nM	
CNC(=O)[C@H]1CC[C@H](NC(=O)c2cnc(-c3cnn4cc(Cl)cnc34)cc2NC(C)C)CC1 [Example 27, 6-(6-chloropyrazolo[1,5-a]pyrimidin-3-yl)-4-(isopropylamino)-N-((1r,4r)-4-(methylcarbamoyl)cyclohexyl) nicotinamide]	1050 nM	7 nM	
CC(C)Nc1cc(-c2cnn3cc(Cl)cnc23)ncc1C(=O)N[C@H]1CC[C@H](C(=O)NC2CC2)CC1 [Example 28, 6-(6-chloropyrazolo[1,5-a]pyrimidin-3-yl)-N-((1r,4r)-4-(cyclopropylcarbamoyl)cyclohexyl)-4-(isopropylamino)nicotinamide]	1920 nM	5 nM	
CC(C)(O)[C@H](F)CNC(=O)c1cnc(-c2cnn3cc(Cl)cnc23)cc1Nc1cccc(C#N)c1F [Example 35, (R)-6-(6-chloropyrazolo[1,5-a]pyrimidin-3-yl)-4-((3-cyano-2-fluorophenyl)amino)-N-(2-fluoro-3-hydroxy-3-methylbutyl)nicotinamide]	2440 nM	2 nM	
O=C(N[C@H]1CC[C@H](C(=O)NC2CC2)CC1)c1cnc(-c2cnn3cc(Cl)cnc23)cc1NC1COC1 [Example 41, 6-(6-chloropyrazolo[1,5-a]pyrimidin-3-yl)-N-((1r,4r)-4-(cyclopropylcarbamoyl)cyclohexyl)-4-(oxetan-3-ylamino)nicotinamide]	350 nM	7 nM	
CC(C)(O)[C@H](F)CNC(=O)c1cnc(-c2cnn3cc(Cl)cnc23)cc1NCC1(O)CCC1 [Example 51, (R)-6-(6-chloropyrazolo[1,5-a]pyrimidin-3-yl)-N-(2-fluoro-3-hydroxy-3-methylbutyl)-4-(((1-hydroxycyclobutyl)methyl)amino)nicotinamide]	1250 nM	10 nM	
[2H]C([2H])([2H])OC(C)(C)[C@H](F)CNC(=O)c1cnc(-c2cnn3cc(Cl)cnc23)cc1NC(C)C [Example 57, (R)-6-(6-chloropyrazolo[1,5-a]pyrimidin-3-yl)-N-(2-fluoro-3-trideuteromethoxy-3-methylbutyl)-4-(isopropylamino)nicotinamide]	2340 nM	3 nM	
CC(C)(O)[C@H](F)CNC(=O)c1cnc(-c2cnn3cc(C#N)cnc23)cc1Nc1ccc(C(N)=O)cc1 [Example 112, (R)-4-((4-carbamoylphenyl)amino)-6-(6-cyanopyrazolo[1,5-a]pyrimidin-3-yl)-N-(2-fluoro-3-hydroxy-3-methylbutyl)nicotinamide]	820 nM		
CC(C)Nc1cc(-c2cnc3ccc(NCC(C)(C)O)nn23)ncc1C(=O)NC[C@@H](F)C(C)(C)O [Example 151, (R)—N-(2-fluoro-3-hydroxy-3-methylbutyl)-6-(6-((2-hydroxy-2-methylpropyl)amino)imidazo[1,2-b]pyridazin-3-yl)-4-(isopropylamino)nicotinamide]		11 nM	
CC(C)Nc1cc(-c2cnc3ccc(N4CC[C@@H](O)C4)nn23)ncc1C(=O)NC[C@@H](F)C(C)(C)O [Example 152, N—((R)-2-fluoro-3-hydroxy-3-methylbutyl)-6-(6-((R)-3-hydroxypyrrolidin-1-yl)imidazo[1,2-b]pyridazin-3-yl)-4-(isopropylamino)nicotinamide]		29 nM	
COc1cnn2c(-c3cc(NC(C)C)c(C(=O)NC[C@@H](F)C(C)(C)O)cn3)cnc2c1 [Example 153, (R)—N-(2-fluoro-3-hydroxy-3-methylbutyl)-4-(isopropylamino)-6-(7-methoxyimidazo[1,2-b]pyridazin-3-yl)nicotinamide]		13 nM	
COc1cnn2c(-c3cc(NC4COC4)c(C(=O)NC[C@@H](F)C(C)(C)O)cn3)cnc2c1 [Example 154, (R)—N-(2-fluoro-3-hydroxy-3-methylbutyl)-6-(7-methoxyimidazo[1,2-b]pyridazin-3-yl)-4-(oxetan-3-ylamino)nicotinamide]		16 nM	
CC(C)Nc1cc(-c2cnc(-c3cccc(C#N)c3)o2)ncc1C(=O)NC[C@@H](F)C(C)(C)O [Example 155, (R)-6-(2-(3-cyanophenyl)oxazol-5-yl)-N-(2-fluoro-3-hydroxy-3-methylbutyl)-4-(isopropylamino)nicotinamide]		55 nM	
CC(C)(C)Nc1cc(-c2cnc3cc(C#N)cnn23)ncc1C(=O)NC[C@@H](F)C(C)(C)O [Example 187, (R)-4-(tert-butylamino)-6-(7-cyanoimidazo[1,2-b]pyridazin-3-yl)-N-(2-fluoro-3-hydroxy-3-methylbutyl)nicotinamide]	200 nM		
COC(C)(C)[C@H]1CC[C@H](NC(=O)c2cnc(-c3cnc4cc(Cl)cnn34)cc2NC2COC2)CC1 [Example 191, 6-(7-chloroimidazo[1,2-b]pyridazin-3-yl)-N-((1r,4r)-4-(2-methoxypropan-2-yl)cyclohexyl)-4-(oxetan-3-ylamino)nicotinamide]	630 nM		
CC(C)(O)[C@H](F)CNC(=O)c1cnc(-c2cnn3cc(C#N)cnc23)cc1Nc1ccn(CC(F)F)c1 [Example 225, (R)-6-(6-cyanopyrazolo[1,5-a]pyrimidin-3-yl)-4-((1-(2,2-difluoroethyl)-1H-pyrrol-3-yl)amino)-N-(2-fluoro-3-hydroxy-3-methylbutyl)nicotinamide]	80 nM		
CC(C)(O)[C@H](F)CNC(=O)c1cnc(-c2cnn3cc(Cl)cnc23)cc1Nc1ccn(CC(F)F)c1 [Example 228, (R)-6-(6-chloropyrazolo[1,5-a]pyrimidin-3-yl)-4-((1-(2,2-difluoroethyl)-1H-pyrrol-3-yl)amino)-N-(2-fluoro-3-hydroxy-3-methylbutyl)nicotinamide]	250 nM		

From patent publication US10618903B2, “Heteroaryl substituted aminopyridine compounds” (BRISTOL-MYERS SQUIBB COMPANY, priority 2015, dated 2020)
